Measurements as given in patent US5695738A, “Steroidal C-glycosides” (Glycomed Incorporated, priority 1995, dated 1997).

Tested on: murine skin inflammation; swelling caused by AA
Experiment: arachidonic acid (AA), murine skin inflammation (ear) model, topical administration
Format: in vivo
Conditions: for percent inhibition of swelling caused by AA alone: 10 uL of 100 mg/mL in CHCl3 (lithocholic acid in CHCl3:CH3OH 1:1) applied to the ear immediately after AA, 90 minutes; for % Inhibition of Swelling: topical, 1 mg applied to the ear immediately after arachidonic acid, 6 mm ear disk weighed at 90 minutes, average of two experiments (Table 1)
Description: Briefly, the compounds at an appropriate concentration are dissolved in a suitable solvent, and applied to a rodent ear immediately following application of arachidonic acid (AA). A control of AA alone is run. About 90 minutes later, a 6 mm disk of each ear is removed and weighed. The percent inhibition of swelling caused by AA alone is calculated for the steroidal C-glycoside derivatives of the invention and compared to other steroids.
Using the arachidonic acid (AA), murine skin inflammation model, described by Harris, R. R. et al. (Skin Pharmacol 1990; 3:29-40) the anti-inflammatory activity of (5) was tested. For comparison, Lithocholic acid and Methyl lithocholate, were also tested. Compounds were dissolved at 100 mg/mL in CHCl3, except for lithocholic acid which was dissolved in CHCl3 :CH3 OH (1:1); 10 uL of each compound was applied to the ear immediately following arachidonic acid (AA). AA was applied alone, or followed immediately with methyl lithocholate, ketone (12) alkene (11) or compound (5). 90 minutes later, a 6 mm disk of each ear was removed and weighed.

Row | Structure (SMILES) | percent inhibition of swelling caused by AA alone | % Inhibition of Swelling [%]
1 | C[C@H](CCC(=O)O)[C@H]1CC[C@H]2[C@@H]3CC[C@@H]4C[C@H](O)CC[C@]4(C)[C@H]3CC[C@]12C [Lithocholic acid] | ~22.5% | 30.5
2 | COC(=O)CC[C@@H](C)[C@H]1CC[C@H]2[C@@H]3CC[C@@H]4C[C@H](OCC(O)(CO)C[C@@H]5O[C@@H](C)[C@@H](O)[C@@H](O)[C@@H]5O)CC[C@]4(C)[C@H]3CC[C@]12C (stereo partly drawn) [compound (5), 1-[3-O-(Lithocholic acid)]-2-(alpha-L-C-methylfucopyranose)-2',3'-propanediol methyl ester] | about 48.5% | 48.5
3 | COC(=O)CC[C@@H](C)[C@H]1CC[C@H]2[C@@H]3CC[C@@H]4C[C@H](O)CC[C@]4(C)[C@H]3CC[C@]12C [methyl lithocholate] | about 17.5% | 17.5
